Experiments:
nuclear cataract = test: Rat sodium selenite (senile/nuclear) cataract model, eye drops, lens opacity phase by slit lamp; type: in vivo, Wistar rats; conditions: 10 suffering eyes per group, about 20 μL three times a day, 10 weeks
Procedure: (§1) Rat model of cataract was made: Wistar rats 12 days after birth were selected, male or female, modeled with sodium selenite (senile cataract), each rat was injected subcutaneously in the back neck according to 20 umol/kg body weight. Acupuncture was used to model adult rats (traumatic cataract).
(§2) The opacity of the lens was observed using a slit lamp, and the lens opacity is generally classified into phase 0-V.
(§3) phase 0—Lens are transparent;
(§4) phase I—The cortex around the lens is scattered in small vacuoles;
(§5) phase II—The cortex around the lens is in ring-shaped dense medium vacuoles;
(§6) phase III—Other parts of cortex are in flaky turbidity;
(§7) phase IV—Lens nucleus and perinuclear cortex are turbid;
(§8) phase V—The lens is completely turbid.
(§9) After 3 days of modeling, econazole eye drops were administered three times a day including morning, noon, and evening, at intervals of at least 5 hours. Every group was made up of 10 cases of cataract suffering eyes involved in the test. The mode of administration was directly dropping to the eye to ensure that the drug was completely dripped into the eye. Each case of suffering eye receiving treatment was administrated one drop at a time with an amount of about 20 μL, and was continuously administrated for 10 weeks. All cataract suffering eyes in different treatment groups were observed and judged for signs of symptom ease or symptom relief.

[1] = Tolerance of eye drops in cataract rats during treatment; type: in vivo, rat; conditions: eye drops three times a day, 10 weeks
Procedure: as §9

traumatic cataract = test: Rat acupuncture (traumatic) cataract model, eye drops, lens opacity phase by slit lamp; type: in vivo, rats; conditions: 10 suffering eyes per group, about 20 μL three times a day, 10 weeks
Procedure: as §1, §2, §3, §4, §5, §6, §7, §8, §9

## Clc1ccc(COC(Cn2ccnc2)c2ccc(Cl)cc2Cl)cc1 (stereo not shown) [econazole, Econazole]
Nuclear cataract
  number of eyes in phase 0: 6
  number of eyes in phase I: 0
  number of eyes in phase II: 0
  number of eyes in phase III: 0
  number of eyes in phase IV: 4
  number of eyes in phase V: 0
[1]
  discomfort or ocular allergic reaction throughout the treatment: No rat has discomfort or ocular allergic reaction
Traumatic cataract
  number of eyes in phase 0: 4
  number of eyes in phase I: 5
  number of eyes in phase II: 1
  number of eyes in phase III: 0
  number of eyes in phase IV: 0
  number of eyes in phase V: 0

Source: US20190192427A1, “AZOLE COMPOUND OPHTHALMIC PREPARATION” (BIOTOOL, LLC, priority 2016, published 2019)
